Columns and labels:
JC cells = assay: Cell viability (neutral red); assay type: cell-based, murine; conditions: JC; doxorubicin alone 72 h; IC50 ratio vs doxorubicin + tariquidar 25 nM
HT29 cells = assay: Cell viability (neutral red); assay type: cell-based, human; conditions: doxorubicin alone 72 h, IC50 ratio vs doxorubicin + tariquidar 25 nM
HT29/DX cells = assay: Cell viability (neutral red); assay type: cell-based, human; conditions: HT29/DX; doxorubicin alone 72 h; IC50 ratio vs doxorubicin + tariquidar 25 nM
U2OS/DX cells = assay: Cell viability (neutral red); assay type: cell-based, human; conditions: U2OS/DX; doxorubicin alone 72 h; IC50 ratio vs doxorubicin + tariquidar 25 nM
MDA-MB-231 cells = assay: Cell viability (neutral red); assay type: cell-based, human; conditions: MDA-MB-231; doxorubicin alone 72 h; IC50 ratio vs doxorubicin + tariquidar 25 nM
SaOS/DX cells = assay: Cell viability (neutral red); assay type: cell-based, human; conditions: SaOS/DX; doxorubicin alone 72 h; IC50 ratio vs doxorubicin + tariquidar 25 nM
SaOS cells = assay: Cell viability (neutral red); assay type: cell-based, human; conditions: doxorubicin alone 72 h, IC50 ratio vs doxorubicin + tariquidar 25 nM
SKBR3 cells = assay: Cell viability (neutral red); assay type: cell-based, human; conditions: doxorubicin alone 72 h, IC50 ratio vs doxorubicin + tariquidar 25 nM
[1] = Hematochemical parameters of tumor-bearing animals; conditions: doxorubicin 5 mg/kg i.v. alone
U2OS cells = assay: Cell viability (neutral red); assay type: cell-based, human; conditions: doxorubicin alone 72 h, IC50 ratio vs doxorubicin + tariquidar 25 nM
TUBO cells = assay: Cell viability (neutral red); assay type: cell-based, murine; conditions: TUBO; doxorubicin alone 72 h; IC50 ratio vs doxorubicin + tariquidar 25 nM
A549/DX cells = assay: Cell viability (neutral red); assay type: cell-based, human; conditions: A549/DX; doxorubicin alone 72 h; IC50 ratio vs doxorubicin + tariquidar 25 nM
T74D cells = assay: Cell viability (neutral red); assay type: cell-based, human; conditions: T74D; doxorubicin alone 72 h; IC50 ratio vs doxorubicin + tariquidar 25 nM
MCF7 cells = assay: Cell viability (neutral red); assay type: cell-based, human; conditions: doxorubicin alone 72 h, IC50 ratio vs doxorubicin + tariquidar 25 nM
A549 cells = assay: Cell viability (neutral red); assay type: cell-based, human; conditions: A549; doxorubicin alone 72 h; IC50 ratio vs doxorubicin + tariquidar 25 nM

With `COc1cccc2c1C(=O)c1c(O)c3c(c(O)c1C2=O)C[C@@](O)(C(=O)CO)C[C@@H]3O[C@H]1C[C@H](N)[C@H](O)[C@H](C)O1` [dox, doxorubicin, reference compound] the Rf dox (JC cells) was 7.61, the Rf dox (HT29 cells) was 1.39 and the Rf dox (HT29/DX cells) was 4.26. For the same molecule, the Rf dox (U2OS/DX cells) was 15.44, the Rf dox (MDA-MB-231 cells) was 4.55 and the Rf dox (SaOS/DX cells) was 14.97. It also gave a Rf dox (SaOS cells) of 1.43, a Rf dox (SKBR3 cells) of 2.19 and an ALT [1] of 37 ± 16 U/l. For the same molecule, the AST [1] was 288 ± 72 U/l, the CPK [1] was 673 ± 172 U/l and the Creatinine [1] was 0.029 ± 0.017 mg/L. For the same molecule, the LDH [1] was 6272 ± 812 U/l, the Rf dox (U2OS cells) was 1.05 and the Rf dox (TUBO cells) was 4.23. For the same molecule, the Rf dox (A549/DX cells) was 4.45, the Rf dox (T74D cells) was 0.98 and the Rf dox (MCF7 cells) was 1.32. The Rf dox (A549 cells) was 1.31.

Source: paper PMC5349880, “P-glycoprotein-mediated chemoresistance is reversed by carbonic anhydrase XII inhibitors” (Oncotarget, 2016)
